Laboratory results taken from US12281060B2, “Remodilins for airway remodeling and organ fibrosis” (The University of Chicago, priority 2019, dated 2025).
“Also recorded” adds a separate entry of the source.

Assays:
[1] = Plasma pharmacokinetics and tissue distribution (liver, lung, thyroid) after single oral doses; type: in vivo; settings: after oral administration, 10 or 50 mg/kg; male C57Bl/6 mice
Description: Studies were performed to characterize plasma pharmacokinetics (PK) and tissue distribution (liver, lung, thyroid) of 5 potential lead candidates in male C57Bl/6 mice receiving single oral doses of 10 mg/kg or 50 mg/kg.

[2] = test system: serum response factor (SRF); assay: Luciferase reporter assay of TGFβ-stimulated SRF activation; type: cell-based, human
Text: FIGS. 6A-6B. Remodilins inhibit myofibroblast transformation. Remodilin 4 inhibits TGFβ-stimulated serum response factor (SRF) activation (FIG. 6B) but not Smad signaling (FIG. 6A), as determined using luciferase reporter assays.
It is well-established that myofibroblast transformation (MFT) is a critical step in the development of pulmonafy fibrisos. […] Maintenance of Smad signaling can preserve other beneficial effects of TGFβ. As depicted in FIG. 7, four remodilins inhibited smooth muscle ACTA2 and fibronectin-1 (FN1) protein expression (markers of MFT) in dose-dependent fashion.

bleomycin-treated mice = assay: Bleomycin-induced lung fibrosis in mice; type: in vivo; settings: 25 mg/kg QD IP
Description: FIGS. 8A-8B. Treatment with remodilin 83 (25 mg/kg QD IP) reduced pulmonary fibrosis in bleomycin-treated mice. Remodilin or vehicle (DMSO) was given on days 7-21 after i.t. bleomycin (1 U/kg). Both lung hydroxyproline (FIG. 8A) and collagen levels (FIG. 8B) were lower in remodilin 83-treated mice than in control mice.
Both lung hydroxyproline (FIG. 8A) and collagen levels (FIG. 8B) were lower in remodilin 83-treated mice (systemically-administered) than in control mice.

HDM-treated Balb/c mice [3] = assay: HDM-induced airway remodeling, MYH11 immunostain-positive airway smooth muscle area; type: in vivo; settings: 12.5 mg/kg BID IP, HDM model, female Balb/c mice, large airways, vs 20% Solutol vehicle
Description: (§1) FIGS. 4A-4B. Effect of remodilin treatment (remodilin 83, 12.5 mg/kg BID IP) on airway constrictor hyperresponsiveness and remodeling induced by house dust mite (HDM) exposure in female Balb/c mice. FIG. 4A Airway constrictor hyperresponsiveness methacholine dose-response curves for mice treated with remodilin 83 or 20% Solutol (vehicle).
Furthermore, three-way analysis of variance (Ctrl vs HDM, Female vs Male, Small vs Large Airways) confirmed that the HDM influence on airway remodeling was significant at P=0.0007.
(§2) As depicted in FIG. 4A, twice-daily intraperitoneal administration of remodilins (12.5 mg/kg) was evaluated.

HDM-treated Balb/c mice [4] = assay: HDM-induced airway constrictor hyperresponsiveness, methacholine challenge; type: in vivo; settings: 12.5 mg/kg BID IP; HDM model, female Balb/c mice; vs 20% Solutol vehicle
Description: as §1
A mouse model of acute allergic asthma was used in which mice were sensitized with house dust mite (HDM) extracts. […] As depicted in FIGS. 1A and 1B, male and female Balb/c mice treated with HDM were subjected to methacholine challenge. […] The area under the curve increased by at least 3.6-fold in each sex.
as §2

[5] = days 7-21 after i.t. bleomycin, vs control mice

COc1ccc(C(=O)Nc2ccc(S(=O)(=O)N3CCNCC3)cc2)cc1I [remodilin 61, 3-Iodo-4-methoxy-N-(4-(piperazin-1-ylsulfonyl)phenyl)benzamide]
accumulation in lung vs. other tissues (liver, thyroid) or plasma [1]: higher concentrations in lung; also recorded: selective accumulation

O=C(Nc1ccc(S(=O)(=O)N2CCCC2)cc1)c1ccc(Br)c(I)c1 [remodilin 50, 4-Bromo-3-iodo-N-(4-(pyrrolidin-1-ylsulfonyl)phenyl)benzamide]
accumulation in lung vs. other tissues (liver, thyroid) or plasma [1]: selective accumulation

CCN(CC)S(=O)(=O)c1ccc(NC(=O)c2ccc(OC)c(I)c2)cc1 [remodilin 4, N-(4-(N,N-diethylsulfamoyl)phenyl)-3-iodo-4-methoxybenzamide]
TGFβ-stimulated serum response factor (SRF) activation [2]: inhibits

CC1CN(S(=O)(=O)c2ccc(NC(=O)c3ccc(Br)c(I)c3)cc2)CCN1 (stereo not drawn) [remodilin 83, 4-Bromo-3-iodo-N-(4-((3-methylpiperazin-1-yl)sulfonyl)phenyl)benzamide]
pulmonary fibrosis (bleomycin-induced) (bleomycin-treated mice; days 7-21 after i.t. bleomycin 1 U/kg, vs DMSO vehicle): inhibitory activity; also recorded: reduced | lung collagen levels (bleomycin-treated mice; [5]): lower | lung hydroxyproline (bleomycin-treated mice; [5]): lower | MYH11 immunostain-positive airway smooth muscle area normalized to epithelial length (HDM-treated Balb/c mice [3]): significantly lower | MYH11 immunostain-positive airway smooth muscle area normalized to epithelial length (HDM-treated Balb/c mice [3]; listed as Remodilin 83): significantly lowered | development of airway constrictor hyperresponsiveness (HDM-treated Balb/c mice [4]): significantly blunted | accumulation in lung vs. other tissues (liver, thyroid) or plasma [1]: higher concentrations in lung; also recorded: selective accumulation

CC1CNCCN1S(=O)(=O)c1ccc(NC(=O)c2ccc(Br)c(I)c2)cc1 (stereo not drawn) [remodilin 86, 4-Bromo-3-iodo-N-(4-((2-methylpiperazin-1-yl)sulfonyl)phenyl)benzamide]
accumulation in lung vs. other tissues (liver, thyroid) or plasma [1]: higher concentrations in lung; also recorded: selective accumulation

COc1ccc(C(=O)Nc2ccc(S(=O)(=O)N3CCCCC3C)cc2)cc1I (stereo not drawn) [remodilin 39, 3-Iodo-4-methoxy-N-(4-((2-methylpiperidin-1-yl)sulfonyl)phenyl) benzamide]
accumulation in lung vs. other tissues (liver, thyroid) or plasma [1]: selective accumulation
